Results reported in the supplement of paper PMC11451515.

Key:
Conditions in all cases: 48 h
[1] = system: SEM cells; test: AUC of viability dose-response curve (% viability x log10 dose units); higher = less sensitive
Summary of the method: (§1)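 Area under the curve was integrated by trapezoidal rule from a log-logistic fit of normalised viability, with curves exceeding full viability scaled and quality-control failures removed. The fit had four parameters over log10 doses. Viability came from CellTiter-Glo One luminescence, normalised per plate to DMSO and cell-free wells, after leukemia cells adapted to each medium (500 or 1000 cells/well, 1536-well plates) were exposed to library compounds in DMSO for 48 h at 37°C. The 11 threefold doses ran from 47 μM to 0.79 nM.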

[2] = system: P12-Ichikawa; test: as above
Summary of the method: as §1

[3] = system: NOMO1; test: as above
Summary of the method: as §1

[4] = system: SEM cells; test: cell viability relative to DMSO control; higher = less cytotoxic
Summary of the method: (§2)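 Viability was expressed as a per-plate percentage of DMSO wells, with cell-free wells as background. Leukemia cells (NOMO1 or SEM at 500 cells/well, P12-Ichikawa at 1000 cells/well) were adapted for at least four passages in each medium and seeded in 1536-well plates (5 μl). Library compounds in DMSO were pin-dosed over an 11-point threefold series from 47 μM to 0.79 nM, and CellTiter-Glo One luminescence was read after 48 h at 37°C.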

[5] = system: P12-Ichikawa; test: as above
Summary of the method: as §2

[6] = system: NOMO1; test: as above
Summary of the method: as §2

COc1cc(N2CCN(C)CC2)ccc1Nc1nc(N)c(C(=O)c2c(Cl)cccc2Cl)s1
AUC of viability dose-response curve
Conditions | [1] | [2] | [3]
HPLM + 10% dialyzed FBS | 425 | 457 | 456
RPMI 5 mM glucose + 10% FBS | 422 | 454 | 467
RPMI 5 mM glucose + 10% dialyzed FBS | 444 | 456 | 467

cell viability [%]
Conditions | [4] | [5] | [6]
HPLM + 10% dialyzed FBS, 0.000781 µM | 109 | 111 | 117
HPLM + 10% dialyzed FBS, 0.00234 µM | 118 | 118 | 105
HPLM + 10% dialyzed FBS, 0.00702 µM | 124 | 106 | 119
HPLM + 10% dialyzed FBS, 0.0211 µM | 111 | 113 | 105
HPLM + 10% dialyzed FBS, 0.0632 µM | 108 | 111 | 110
HPLM + 10% dialyzed FBS, 0.19 µM | 116 | 108 | 116
HPLM + 10% dialyzed FBS, 0.569 µM | 111 | 112 | 126
HPLM + 10% dialyzed FBS, 1.71 µM | 93.7 | 103 | 128
HPLM + 10% dialyzed FBS, 5.12 µM | 88.9 | 105 | 107
HPLM + 10% dialyzed FBS, 15.4 µM | 78.4 | 96.2 | 89
HPLM + 10% dialyzed FBS, 46.1 µM | 24.5 | 50.2 | 82.7
RPMI 5 mM glucose + 10% FBS, 0.000781 µM | 118 | 119 | 107
RPMI 5 mM glucose + 10% FBS, 0.00234 µM | 121 | 117 | 117
RPMI 5 mM glucose + 10% FBS, 0.00702 µM | 117 | 125 | 103
RPMI 5 mM glucose + 10% FBS, 0.0211 µM | 108 | 110 | 98.7
RPMI 5 mM glucose + 10% FBS, 0.0632 µM | 101 | 114 | 103
RPMI 5 mM glucose + 10% FBS, 0.19 µM | 109 | 111 | 118
RPMI 5 mM glucose + 10% FBS, 0.569 µM | 105 | 115 | 102
RPMI 5 mM glucose + 10% FBS, 1.71 µM | 110 | 105 | 105
RPMI 5 mM glucose + 10% FBS, 5.12 µM | 85.7 | 101 | 104
RPMI 5 mM glucose + 10% FBS, 15.4 µM | 68.4 | 99.5 | 98.6
RPMI 5 mM glucose + 10% FBS, 46.1 µM | 3.88 | 50.5 | 87.3
RPMI 5 mM glucose + 10% dialyzed FBS, 0.000781 µM | 112 | 120 | 108
RPMI 5 mM glucose + 10% dialyzed FBS, 0.00234 µM | 105 | 120 | 107
RPMI 5 mM glucose + 10% dialyzed FBS, 0.00702 µM | 122 | 131 | 108
RPMI 5 mM glucose + 10% dialyzed FBS, 0.0211 µM | 116 | 117 | 116
RPMI 5 mM glucose + 10% dialyzed FBS, 0.0632 µM | 116 | 112 | 96.6
RPMI 5 mM glucose + 10% dialyzed FBS, 0.19 µM | 114 | 117 | 114
RPMI 5 mM glucose + 10% dialyzed FBS, 0.569 µM | 110 | 119 | 103
RPMI 5 mM glucose + 10% dialyzed FBS, 1.71 µM | 106 | 114 | 109
RPMI 5 mM glucose + 10% dialyzed FBS, 5.12 µM | 122 | 115 | 102
RPMI 5 mM glucose + 10% dialyzed FBS, 15.4 µM | 85.7 | 101 | 105
RPMI 5 mM glucose + 10% dialyzed FBS, 46.1 µM | 13.3 | 54.3 | 89.7

N#Cc1cc(NC(=O)Nc2nnc(-c3ccncc3)s2)ccc1-c1cn[nH]c1
AUC of viability dose-response curve
Conditions | [1] | [2] | [3]
HPLM + 10% dialyzed FBS | 451 | 463 | 473
RPMI 5 mM glucose + 10% FBS | 462 | 452 | 476
RPMI 5 mM glucose + 10% dialyzed FBS | 467 | 465 | 461

cell viability [%]
Conditions | [4] | [5] | [6]
HPLM + 10% dialyzed FBS, 0.000781 µM | – | 117 | 117
HPLM + 10% dialyzed FBS, 0.00234 µM | – | 125 | 118
HPLM + 10% dialyzed FBS, 0.00702 µM | – | 122 | 115
HPLM + 10% dialyzed FBS, 0.0211 µM | – | 125 | 110
HPLM + 10% dialyzed FBS, 0.0632 µM | – | 120 | 116
HPLM + 10% dialyzed FBS, 0.19 µM | – | 116 | 114
HPLM + 10% dialyzed FBS, 0.569 µM | – | 122 | 113
HPLM + 10% dialyzed FBS, 1.71 µM | – | 115 | 130
HPLM + 10% dialyzed FBS, 5.12 µM | – | 113 | 121
HPLM + 10% dialyzed FBS, 15.4 µM | – | 106 | 123
HPLM + 10% dialyzed FBS, 46.1 µM | – | 110 | 106
RPMI 5 mM glucose + 10% FBS, 0.000781 µM | 96 | 120 | 108
RPMI 5 mM glucose + 10% FBS, 0.00234 µM | 111 | 127 | 100
RPMI 5 mM glucose + 10% FBS, 0.00702 µM | 93 | 125 | 114
RPMI 5 mM glucose + 10% FBS, 0.0211 µM | 85.1 | 126 | 124
RPMI 5 mM glucose + 10% FBS, 0.0632 µM | 96.4 | 110 | 114
RPMI 5 mM glucose + 10% FBS, 0.19 µM | 106 | 116 | 115
RPMI 5 mM glucose + 10% FBS, 0.569 µM | 107 | 119 | 99.6
RPMI 5 mM glucose + 10% FBS, 1.71 µM | 105 | 113 | 114
RPMI 5 mM glucose + 10% FBS, 5.12 µM | 87.9 | 119 | 105
RPMI 5 mM glucose + 10% FBS, 15.4 µM | 93.1 | 112 | 127
RPMI 5 mM glucose + 10% FBS, 46.1 µM | 89.2 | 109 | 101
RPMI 5 mM glucose + 10% dialyzed FBS, 0.000781 µM | 107 | 121 | –
RPMI 5 mM glucose + 10% dialyzed FBS, 0.00234 µM | 120 | 126 | –
RPMI 5 mM glucose + 10% dialyzed FBS, 0.00702 µM | 128 | 117 | –
RPMI 5 mM glucose + 10% dialyzed FBS, 0.0211 µM | 107 | 124 | –
RPMI 5 mM glucose + 10% dialyzed FBS, 0.0632 µM | 98.6 | 126 | –
RPMI 5 mM glucose + 10% dialyzed FBS, 0.19 µM | 129 | 126 | –
RPMI 5 mM glucose + 10% dialyzed FBS, 0.569 µM | 113 | 128 | –
RPMI 5 mM glucose + 10% dialyzed FBS, 1.71 µM | 122 | 124 | –
RPMI 5 mM glucose + 10% dialyzed FBS, 5.12 µM | 127 | 115 | –
RPMI 5 mM glucose + 10% dialyzed FBS, 15.4 µM | 93 | 112 | –
RPMI 5 mM glucose + 10% dialyzed FBS, 46.1 µM | 108 | 105 | –

CC(C)[C@H]1C(=O)N[C@H](CO)Cc2c[nH]c3cccc(c23)N1C
AUC of viability dose-response curve
Conditions | [1] | [2] | [3]
HPLM + 10% dialyzed FBS | 396 | 446 | 393
RPMI 5 mM glucose + 10% FBS | 379 | 411 | 404
RPMI 5 mM glucose + 10% dialyzed FBS | 442 | 401 | 405

cell viability [%]
Conditions | [4] | [5] | [6]
HPLM + 10% dialyzed FBS, 0.000781 µM | 82.3 | 87.3 | 104
HPLM + 10% dialyzed FBS, 0.00234 µM | 78.3 | 96 | 98.3
HPLM + 10% dialyzed FBS, 0.00702 µM | 90.7 | 98.3 | 106
HPLM + 10% dialyzed FBS, 0.0211 µM | 105 | 108 | 111
HPLM + 10% dialyzed FBS, 0.0632 µM | 114 | 110 | 125
HPLM + 10% dialyzed FBS, 0.19 µM | 75.6 | 99.2 | 128
HPLM + 10% dialyzed FBS, 0.569 µM | 85.6 | 92.2 | 112
HPLM + 10% dialyzed FBS, 1.71 µM | 78.9 | 88.1 | 75.8
HPLM + 10% dialyzed FBS, 5.12 µM | 57.9 | 74.2 | 50.6
HPLM + 10% dialyzed FBS, 15.4 µM | 64.7 | 83.9 | 47.2
HPLM + 10% dialyzed FBS, 46.1 µM | 76.6 | 88.8 | 45
RPMI 5 mM glucose + 10% FBS, 0.000781 µM | 83 | 91.5 | 96.2
RPMI 5 mM glucose + 10% FBS, 0.00234 µM | 74 | 98.8 | 103
RPMI 5 mM glucose + 10% FBS, 0.00702 µM | 91.9 | 104 | 112
RPMI 5 mM glucose + 10% FBS, 0.0211 µM | 114 | 105 | 104
RPMI 5 mM glucose + 10% FBS, 0.0632 µM | 99.1 | 110 | 111
RPMI 5 mM glucose + 10% FBS, 0.19 µM | 78.3 | 98.9 | 119
RPMI 5 mM glucose + 10% FBS, 0.569 µM | 92.3 | 76.9 | 99.7
RPMI 5 mM glucose + 10% FBS, 1.71 µM | 74.2 | 75.4 | 77.7
RPMI 5 mM glucose + 10% FBS, 5.12 µM | 47.9 | 63.7 | 67.9
RPMI 5 mM glucose + 10% FBS, 15.4 µM | 50.2 | 65.4 | 51.1
RPMI 5 mM glucose + 10% FBS, 46.1 µM | 61.3 | 74.5 | 46.7
RPMI 5 mM glucose + 10% dialyzed FBS, 0.000781 µM | 89.7 | 87 | 81.7
RPMI 5 mM glucose + 10% dialyzed FBS, 0.00234 µM | 90.8 | 99.7 | 94.4
RPMI 5 mM glucose + 10% dialyzed FBS, 0.00702 µM | 99.7 | 97.9 | 93.2
RPMI 5 mM glucose + 10% dialyzed FBS, 0.0211 µM | 114 | 101 | 93.2
RPMI 5 mM glucose + 10% dialyzed FBS, 0.0632 µM | 102 | 107 | 97.5
RPMI 5 mM glucose + 10% dialyzed FBS, 0.19 µM | 80.6 | 90.3 | 120
RPMI 5 mM glucose + 10% dialyzed FBS, 0.569 µM | 104 | 79.1 | 100
RPMI 5 mM glucose + 10% dialyzed FBS, 1.71 µM | 104 | 70.6 | 69.5
RPMI 5 mM glucose + 10% dialyzed FBS, 5.12 µM | 67.1 | 58 | 71.1
RPMI 5 mM glucose + 10% dialyzed FBS, 15.4 µM | 74.1 | 64.5 | 56
RPMI 5 mM glucose + 10% dialyzed FBS, 46.1 µM | 88.4 | 65.3 | 47.4
